Assay results: paper PMC7887271, “Fast acting allosteric phosphofructokinase inhibitors block trypanosome glycolysis and cure acute African trypanosomiasis in mice” (Nature Communications, 2021)

Experiments:
T. b. brucei GVR35-luc = assay: Wash-out studies, GVR35; assay type: cell-based; conditions: concentrations greater than 2 to 4 µM, exposure longer than 4-6 hours, 3 days in drug free medium
Method: In vitro ‘wash-out’ studies were performed to determine the reversibility of the action of the CTCB compounds on trypanosomes, after a certain exposure time, and thus to assess whether the compounds have a trypanocidal or trypanostatic effect. These experiments were carried out with both the T. b. brucei Lister 427 and T. b. brucei GVR35-luc strains. Trypanosomes at a density of 500,000 cells/ml in culture medium were incubated with CTCB compounds at varying concentrations in 12-well plates in volumes of 1 ml for different periods of time at 37°C. Subsequently, the cultures were centrifuged for 5 min at 2600 x g, the cells washed by re-suspending the pellets in 1 ml medium without inhibitors, centrifuged again and re-suspended in 1 ml fresh medium. The cell suspensions were then incubated under regular culture conditions for 3 days and parasite growth monitored daily by light microscopy.
The results for both strains are similar with no grow-back at concentrations of CTCB compounds greater than 2 to 4 µM with drug exposure longer than 4-6 hours.

CYP2C19 = target: T1, CYP2C19 (Homo sapiens, UniProt P33261); assay: Inhibition of CYP2C19; assay type: in vitro ADME; conditions: CYP450 isoform inhibition kit (BD Biosciences), probe CEC
T1 construct: purchased BD Biosciences
T1 sequence (P33261 whole entry, canonical isoform): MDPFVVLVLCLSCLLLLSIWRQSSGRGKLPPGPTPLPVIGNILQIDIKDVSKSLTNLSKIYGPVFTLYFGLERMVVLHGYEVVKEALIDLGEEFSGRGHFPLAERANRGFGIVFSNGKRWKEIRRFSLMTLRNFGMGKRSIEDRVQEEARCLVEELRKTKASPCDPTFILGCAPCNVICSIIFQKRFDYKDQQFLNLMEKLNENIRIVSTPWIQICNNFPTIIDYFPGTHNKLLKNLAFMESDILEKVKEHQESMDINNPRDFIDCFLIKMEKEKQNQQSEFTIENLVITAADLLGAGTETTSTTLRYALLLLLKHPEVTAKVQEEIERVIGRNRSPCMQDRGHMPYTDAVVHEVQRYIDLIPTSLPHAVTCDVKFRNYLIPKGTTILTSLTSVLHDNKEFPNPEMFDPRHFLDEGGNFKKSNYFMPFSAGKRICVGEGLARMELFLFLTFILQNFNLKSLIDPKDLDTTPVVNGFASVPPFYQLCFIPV
Method: A HepG2 cytotoxicity assay was used to determine a cellular selectivity index. HepG2 cells were seeded into 96-well plates in EMEM medium. Compounds were assessed for their effect upon cellular viability (Supplementary Methods 5.1). Inhibition of CYP450 was determined using kits from BD Biosciences (Supplementary Methods 5.2). Metabolic stability was determined using mouse […] tested at a single concentration of 5 µM. Plasma protein binding was determined using mouse and human plasma at a single concentration of 10 µM (Supplementary Methods 5.4). All PK studies in mice were carried out by Pharmidex (Supplementary Methods 6.1).
The compounds were investigated for their inhibitory effect on cytochrome P450 (CYP450) activity using five CYP450 isoforms (with fluorescent substrates in brackets): 3A4 (two substrates, BFC and DBF), 2D6 (AMMC), 2C9 (MFC), 2C19 (CEC) and 1A2 (CEC). Kits from BD Biosciences were used along with the method described by the manufacturer. […] Fluorescence was measured using a SpectraMax M5 plate reader.

T. b. rhodesiense = assay: EC50 against in vitro cultured T. b. rhodesiense (STMI); assay type: cell-based; conditions: Trypanosoma brucei
[1] = Mouse hepatocytes intrinsic clearance; assay type: in vitro ADME
From the text: Methods are described in Supplementary Methods 5 and 6. Enzyme assay results are means ± SD in multiple assays. ADME results are averages of n = 2 or 3 measurements in individual assays.

MDCK-MDR1 = conditions: dog

CN(C)CCn1ccc2c(ccn2Cc2ccc(Cl)c(Br)c2)c1=O [CTCB-470, 1-[(3-Bromo-4-chlorophenyl)methyl]-5-[2-(dimethylamino)ethyl] pyrrolo[3,2-c]pyridin-4-one]
wash-out: grow-back after removal of drug (T. b. brucei GVR35-luc): no grow-back
inhibition at 10 µM (CYP2C19): 45%
EC50 (T. b. rhodesiense): 280 nM
Mouse hepatocytes Clint [1]: 3.6 µL min^−1 per 10^6 cells
MDCK-MDR1 A-B (MDCK-MDR1): 34.9
MDCK-MDR1 B-A (MDCK-MDR1): 28.3
